Measurements reported in patent US10472366B2, “Glucuronide prodrugs of tofacitinib” (THERAVANCE BIOPHARMA R&D IP, LLC, priority 2017, dated 2019).
Several values for one entry are separate records, joined by “and”; a condition that tells them apart may be missing. Equal values may be shown once.

What was measured:
[1] = Oral pharmacokinetics in rat assay; type: in vivo; conditions: liberated tofacitinib AUC0-6 h in colon tissue; male Sprague Dawley rats, single PO dose 5 mg/kg of test compound
Method: When cleaved by β-glucuronidase enzyme, the compounds of the present invention release tofacitinib. The object of this assay was to determine tofacitinib exposure (AUC0-6 h) in colon tissue and plasma following oral dosing of compounds of the present invention in rats.
Male Sprague Dawley rats (n=2/time point) received a single PO oral gavage dose (5 mg/kg in 1:20 mixture of 5% DMSO and 1% HPMC) of test compounds. At 0.5, 1, 3, 6 and 24 h post-dosing, rats were sacrificed via cardiac puncture exsanguination, and blood samples were taken and placed into sample tubes (Microtainer, Becton, Dickinson and Company) containing sodium fluoride and then placed on ice. Plasma was obtained by centrifugation (Eppendorf centrifuge, 5804R) for 4 minutes at approximately 12,000 rpm at 4° C.
The colons were removed from exsanguinated rats and the colon contents gently removed. The colons were flushed with saline and patted dry. The colons were then homogenized in 3× the weight of sterile water using a tissue homogenizer (Precellys homogenizer, Bertin Instruments) at approximately 4° C. All samples were stored at −80° C. for later bioanalysis.
The concentration of tofacitinib in each sample was determined as follows: the plasma and colon samples were vortexed, combined with a 50 μL aliquot of rat plasma, extracted with 200 μL of ACN containing an internal standard and quantified against the internal standard by LC-MS. An area-under-the-concentration curve (AUC0-6 h) was calculated for plasma and colon test compound and liberated tofacitinib. A key parameter to assess suitability for localized delivery of tofacitinib to the colon was the tofacitinib colon to plasma AUC ratio.

[2] = system: oxazolone-induced colitis; assay: Mouse model of oxazolone-induced colitis; type: in vivo; conditions: PO
Method: Oxazolone-induced colitis is an experimental model that has a histological resemblance to human ulcerative colitis (Heller et al. […], 2002, 17, 629-638). Adult BALB/C mice (25-28 g, 9-12 weeks of age) from BioNeeds (India) were used in the assay. On Day 1, animals were lightly anesthetized with isoflurane and the hairs between the shoulder were carefully removed. Oxazolone (6 mg/mouse, 100 μL, 4:1 acetone:olive oil formulation) or vehicle solution was slowly applied to the bare skin patch to induce skin sensitization. Six days after skin sensitization, the mice were fasted overnight and then anesthetized with ketamine and xylazine administered intraperitoneally. A 1 mL syringe filled with oxazolone solution (0.5 mg/50 μL/mouse in 50% ethanol) or 50% ethanol/saline was inserted carefully ˜3.8 cm into the colon of the mouse. Animals were kept in a head down position and oxazolone or vehicle solution was rectally instilled very slowly over a minute. The mice were held vertically (head down) for another minute to ensure that the entire oxazolone or vehicle solution remained inside the colon. Test compound treatment (PO, BID or TID) or vehicle was initiated the evening prior to the oxazolone intrarectal (IR) challenge. On both first (Day 1) and second (Day 2) days post-oxazolone IR challenge, the Disease Activity Index (DAI) was assessed by treatment-blinded experimenters for each mouse, according to the following subscores: stool consistency (0, normal; 2, loose; 4, diarrhea), gross bleeding and hemoccult test (0, absence; 2, blood tinged; 4, overt blood presence), and weight loss (0, none; 1, 1%-5%; 2, 6^%-10%; 3, 11%-15%; 4, more than 15%); DAI=average of (stool consistency+blood presence+weight loss scores).
An area-under-the-curve (AUC) calculation based on total DAI scores was performed to track disease progression during the course of the experiment. AUC for each experimental group was calculated as: AUC=[(Day 1−Day 0)*Average (DAI Score of Day 0 & Day 1)]+[(Day 2−Day 1)*Average (DAI Score of Day 1 & Day 2)]. A Student's t-test compared the DAI AUC score of the vehicle/vehicle and vehicle/oxazolone groups to evaluate whether disease was induced following oxazolone treatment. This was followed by a one-way analysis of variance (ANOVA), with Dunnett's post hoc test, to compare the DAI AUC score of the vehicle/oxazolone and test compound/oxazolone groups. Statistical significance was defined by an α level set at p<0.05.

[3] = system: β-glucuronidase in rat colon feces; assay: Rat colon fecal homogenate stability assay; type: in vitro ADME; conditions: in vitro half-life in rat fecal supernatant-homogenate, anaerobic, 10 μM substrate, individual values when assay repeated; for half-life at 10 μM: male, rat, rat colon fecal supernatant-homogenate, read-out: T½
Excerpt: The compounds of the present invention contain a glucuronide prodrug moiety that is expected to be cleaved by β-glucuronidase enzyme. The objective of this assay was to determine the half-life for compounds of the present invention in the presence of β-glucuronidase in rat colon feces.
Following sacrifice of a naïve male rat (˜300 g) by cardiac puncture exsanguination, the colon was ligated and removed to an anaerobic chamber (AS-580, Anaerobe Systems). The fecal content was removed within the chamber and was diluted 1:10 with phosphate buffer (1 gram fecal content to 9 mL phosphate buffer) and the resulting mixture was homogenized using a handheld Omni Tissue Master. The fecal homogenate was centrifuged at 2000 g for 10 min to remove bulk material and the supernatant was removed and used for the incubations.
DMSO stock solutions (10 mM) of the test compounds and sulfasalazine (control) were prepared. Sulfasalazine was used as a positive control to confirm viability of the fecal supernatant-homogenate (see, e.g., Azad Khan et al., Clinical Science (1983) 64, 349-354). If the in vitro half-life (T½) for sulfasalazine in the fecal sample was less than 30 min, the fecal sample was deemed to be viable and in true anaerobic conditions. However, if the T½ for sulfasalazine was greater than 30 min, the fecal sample was typically contaminated with oxygen and was not viable. The final substrate concentration of each assay was 10 μM. Reactions were started by adding a 5 μL aliquot of diluted test compound stock solution into 300 μL of rat fecal supernatant-homogenate. At 0, 15, 30, 60, 90, and 120 min post reaction initiation, a 50 μL aliquot was removed and added to a mixture of 200 μL of acetonitrile with 3% formic acid and an internal standard. All samples were centrifuged at 2000 g for 10 min after which 50 μL of supernatant was diluted into 150 μL of water for analysis on an LC-MS system. In vitro half-lives (T½) for the test compounds were calculated as follows: T½=0.693/elimination rate constant. When the assay was performed more than once, individual values are reported.

[4] = 3, 10 and 30 mg/kg, BID, BALB/C mice, vs vehicle/oxazolone, p<0.05

T½ [3]	half-life at 10 μM [3] [min]	Structure (SMILES)	also measured
29 min and < 15 min	20	C[C@@H]1CCN(C(=O)CC#N)C[C@@H]1N(C)c1ncnc2c1ccn2C(=O)N(C)c1ccccc1O[C@@H]1O[C@H](C(=O)O)[C@@H](O)[C@H](O)[C@H]1O [Compound III-2, (2S,3S,4S,5R,6S)-6-(2-(4-(((3R,4R)-1-(2-Cyanoacetyl)-4-methylpiperidin-3-yl)(methyl)amino)-N-methyl-7H-pyrrolo[2,3-d]pyrimidine-7-carboxamido)phenoxy)-3,4,5-trihydroxytetrahydro-2H-pyran-2-carboxylic Acid]	Colon AUC [1]: 33.2 µg·h/g; reversal of oxazolone-induced colitis (DAI AUC score) [2, 4]: statistically significant reversal
	< 15	C[C@@H]1CCN(C(=O)CC#N)C[C@@H]1N(C)c1ncnc2c1ccn2C(=O)N(C)CCN(C)C(=O)OCc1ncccc1O[C@@H]1O[C@H](C(=O)O)[C@@H](O)[C@H](O)[C@H]1O [Compound V-2, (2S,3S,4S,5R,6S)-6-((2-((((2-(4-(((3R,4R)-1-(2-Cyanoacetyl)-4-methylpiperidin-3-yl)(methyl)amino)-N-methyl-7H-pyrrolo[2,3-d]pyrimidine-7-carboxamido)ethyl)(methyl)carbamoyl)oxy)methyl)pyridin-3-yl)oxy)-3,4,5-trihydroxytetrahydro-2H-pyran-2-carboxylic Acid]	
<15, <15 min	< 15	C[C@@H]1CCN(C(=O)CC#N)C[C@@H]1N(C)c1ncnc2c1ccn2C(=O)N(C)Cc1cc([N+](=O)[O-])ccc1O[C@@H]1O[C@H](C(=O)O)[C@@H](O)[C@H](O)[C@H]1O [Compound III-7, (2S,3S,4S,5R,6S)-6-(2-((4-(((3R,4R)-1-(2-Cyanoacetyl)-4-methylpiperidin-3-yl)(methyl)amino)-N-methyl-7H-pyrrolo[2,3-d]pyrimidine-7-carboxamido)methyl)-4-nitrophenoxy)-3,4,5-trihydroxytetrahydro-2H-pyran-2-carboxylic Acid]	
6 min and < 15 min		C[C@@H]1CCN(C(=O)CC#N)C[C@@H]1N(C)c1ncnc2c1ccn2C(=O)N(C)c1cc(C(F)(F)F)ccc1O[C@@H]1O[C@H](C(=O)O)[C@@H](O)[C@H](O)[C@H]1O [Compound III-4, (2S,3S,4S,5R,6S)-6-(2-(4-(((3R,4R)-1-(2-cyanoacetyl)-4-methylpiperidin-3-yl)(methyl)amino)-N-methyl-7H-pyrrolo[2,3-d]pyrimidine-7-carboxamido)-4-(trifluoromethyl)phenoxy)-3,4,5-trihydroxytetrahydro-2H-pyran-2-carboxylic Acid]	
	< 15	C[C@@H]1CCN(C(=O)CC#N)C[C@@H]1N(C)c1ncnc2c1ccn2C(=O)N(C)c1cc(Cl)ccc1O[C@@H]1O[C@H](C(=O)O)[C@@H](O)[C@H](O)[C@H]1O [Compound III-5, (2S,3S,4S,5R,6S)-6-(4-Chloro-2-(4-(((3R,4R)-1-(2-cyanoacetyl)-4-methylpiperidin-3-yl)(methyl)amino)-N-methyl-7H-pyrrolo[2,3-d]pyrimidine-7-carboxamido)phenoxy)-3,4,5-trihydroxytetrahydro-2H-pyran-2-carboxylic Acid]	
		C[C@@H]1CCN(C(=O)CC#N)C[C@@H]1N(C)c1ncnc2[nH]ccc12 [tofacitinib, 3-((3R,4R)-4-methyl-3-(methyl(7H-pyrrolo[2,3-d]pyrimidin-4-yl)amino)piperidin-1-yl)-3-oxopropanenitrile]	reversal of oxazolone-induced colitis (DAI AUC score) ([2]; positive control, 60 mg/kg, experiment with Compound 11-6): did produce a statistically significant reversal; reversal of oxazolone-induced colitis (DAI AUC score) ([2]; positive control, 30 and 60 mg/kg, BID, experiment with Compound II-1): statistically significant reversal; reversal of oxazolone-induced colitis (DAI AUC score) ([2]; positive control, 30 and 60 mg/kg, BID, experiment with Compound III-1): did not produce a statistically significant reversal; reversal of oxazolone-induced colitis (DAI AUC score) ([2]; positive control, 30 and 60 mg/kg, BID, experiment with Compound III-2): statistically significant reversal
<15, <15 min	< 15	C[C@@H]1CCN(C(=O)CC#N)C[C@@H]1N(C)c1ncnc2c1ccn2C(=O)N(C)CCN(C)C(=O)OCc1ccccc1O[C@@H]1O[C@H](C(=O)O)[C@@H](O)[C@H](O)[C@H]1O [Compound V-1, (2S,3S,4S,5R,6S)-6-(2-((((2-(4-(((3R,4R)-1-(2-Cyanoacetyl)-4-methylpiperidin-3-yl)(methyl)amino)-N-methyl-7H-pyrrolo[2,3-d]pyrimidine-7-carboxamido)ethyl)(methyl)carbamoyl)oxy)methyl)phenoxy)-3,4,5-trihydroxytetrahydro-2H-pyran-2-carboxylic Acid]	
< 15 min	20	Cc1ccc(O[C@@H]2O[C@H](C(=O)O)[C@@H](O)[C@H](O)[C@H]2O)c(N(C)C(=O)n2ccc3c(N(C)[C@H]4CN(C(=O)CC#N)CC[C@H]4C)ncnc32)c1 [Compound III-3, (2S,3S,4S,5R,6S)-6-(2-(4-(((3R,4R)-1-(2-Cyanoacetyl)-4-methylpiperidin-3-yl)(methyl)amino)-N-methyl-7H-pyrrolo[2,3-d]pyrimidine-7-carboxamido)-4-methylphenoxy)-3,4,5-trihydroxytetrahydro-2H-pyran-2-carboxylic Acid]	
<15, <15 min	< 15	C[C@@H]1CCN(C(=O)CC#N)C[C@@H]1N(C)c1ncnc2c1ccn2C(=O)N(C)Cc1ccccc1O[C@@H]1O[C@H](C(=O)O)[C@@H](O)[C@H](O)[C@H]1O [Compound III-6, (2S,3S,4S,5R,6S)-6-(2-((4-(((3R,4R)-1-(2-Cyanoacetyl)-4-methylpiperidin-3-yl)(methyl)amino)-N-methyl-7H-pyrrolo[2,3-d]pyrimidine-7-carboxamido)methyl)phenoxy)-3,4,5-trihydroxytetrahydro-2H-pyran-2-carboxylic Acid]	reversal of oxazolone-induced colitis (DAI AUC score) [2, 4]: did not produced a statistically significant effect
1 min and < 15 min		C[C@@H]1CCN(C(=O)CC#N)C[C@@H]1N(C)c1ncnc2c1ccn2C(=O)N(C)Cc1ccccc1NC(=O)O[C@@H]1O[C@H](C(=O)O)[C@@H](O)[C@H](O)[C@H]1O [Compound IV-1]	Colon AUC [1]: 5.15 µg·h/g
